Test results: US5519051A, “Oxa- or azasteroid derivatives” (Teikoku Hormone Mfg. Co., Ltd., priority 1991, dated 1996)

molecular target: T1, aromatase (Homo sapiens, UniProt P11511); assay: aromatase inhibition action (3H2O liberated by aromatization of [1,2-3H] androstenedione, human placental microsome); format: biochemical; conditions: freeze-dried human placental microsome 150 μg; 2 μM [1,2-3H] androstenedione; 180 μM NADPH; pH 7.5; 37° C., 20 minutes
T1 construct: human placental microsome (one obtained by centrifugation at 105,000); from tissue; host or cells: human placenta, microsomes (washed with dithiothreitol, freeze-dried)
T1 sequence (P11511 1-503): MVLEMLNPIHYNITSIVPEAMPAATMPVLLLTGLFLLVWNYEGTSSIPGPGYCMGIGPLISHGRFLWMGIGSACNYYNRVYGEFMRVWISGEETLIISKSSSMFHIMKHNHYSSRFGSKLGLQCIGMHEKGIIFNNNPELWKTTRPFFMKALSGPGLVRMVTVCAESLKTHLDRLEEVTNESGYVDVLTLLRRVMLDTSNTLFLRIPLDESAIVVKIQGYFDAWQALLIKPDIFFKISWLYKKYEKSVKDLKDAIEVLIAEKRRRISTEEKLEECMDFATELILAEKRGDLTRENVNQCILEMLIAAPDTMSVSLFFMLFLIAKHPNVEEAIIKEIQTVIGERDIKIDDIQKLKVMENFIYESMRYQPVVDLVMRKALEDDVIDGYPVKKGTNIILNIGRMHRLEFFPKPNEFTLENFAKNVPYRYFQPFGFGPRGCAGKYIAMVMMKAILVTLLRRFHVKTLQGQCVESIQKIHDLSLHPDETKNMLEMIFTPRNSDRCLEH
Description: (1) Assay of aromatase inhibition action
According to the method of Ryan (The Journal of Biological Chemistry, 234, 268-272, 1959), human placental microsome (one obtained by centrifugation at 105,000 × g for 60 minutes) was prepared. A microsome was used after being washed twice with 0.5 mM dithiothreitol solution, freeze-driedand stored at -20° C.
Aromatase inhibition action was assayed according to the method developed by Tompson and Siiteri (The Journal of Biological Chemistry, 249, 5373-5378, 1974). The method is to determine the amount of ^3 H2 O liberated by aromatization of [1,2-^3 H] androstenedione. The experiment using the enzyme is carried out in 67 mM phosphate buffer of pH 7.5 so that the amount of the last incubation liquid gets to be 0.5 mi. The incubation liquid contains 180 μM NADPH, 2 μM [1,2-^3 H] androstenedione, 150 μg of the freeze-dried human placental microsome, 25 μl of methanol and a test compound in various concentrations. The incubation is carried out in the air at 37° C. for 20 minutes, 3 ml of chloroform is added to finish the reaction, and then the mixture is stirred for 40 seconds. Then, centrifugation is conducted at 700 × g for 10 minutes, 0.3 ml of the aqueous solution is removed from the supernatant, the scintillation mixture is added, and the amount of ^3 H2 O formed is determined

| SMILES | IC50 |
| --- | --- |
| C[C@]12CCCC=C1CC[C@@H]1[C@@H]2CC[C@]2(C)C(=O)OC[C@@H]12 [Example 3, 16-oxaandrost-4-en-17-one] | 1.2 µM |
| C[C@]12CCCC=C1CC[C@@H]1[C@@H]2CC[C@]2(C)C(=O)OCC[C@@H]12 [Example 25, D-homo-17-oxaandrost-4-en-17a-one] | 0.73 µM |
| C[C@]12CCCC=C1[C@@H]1[C@H]([C@@H]3[C@@H]2CC[C@]2(C)C(=O)OCC[C@@H]32)C1(F)F [Example 28, 6α,7α-difluoromethylene-D-homo-17-oxaandrost-4-en-17a-one] | 1.3 µM |
| C[C@]12CCC(=O)C(O)=C1CC[C@@H]1[C@@H]2CC[C@]2(C)C(=O)OCC[C@@H]12 [Example 31, 4-hydroxy-D-homo-17-oxaandrost-4-ene-3,17a-dione] | 0.6 µM |

Other lines, results leading:

| IC50 | SMILES |
| --- | --- |
| 2.1 µM | C=C1C[C@@H]2[C@H](CC[C@]3(C)C(=O)OCC[C@@H]23)[C@@]2(C)C=CC(=O)C=C12 [Example 36, 6-methylene-17-oxa-D-homoandrosta-1,4-diene-3,17a-dione] |
| 2.7 µM | C[C@]12CC[C@H]3[C@@H](CC(=O)C4=CC(=O)CC[C@@]43C)[C@@H]1CCOC2 [Example 50, D-homo-17-oxaandrost-4-ene-3,6-dione] |
| 2.9 µM | C[C@]12CC[C@H]3[C@@H](C=CC4=CC(=O)C=C[C@@]43C)[C@@H]1CCOC2 [Example 51, D-homo-17-oxaandrosta-1,4,6-trien-3-one] |
| 1.9 µM | C[C@]12CC[C@H]3[C@@H](CCC4=C(O)C(=O)CC[C@@]43C)[C@@H]1CCOC2 [Example 56, 4-hydroxy-D-homo-17-oxaandrost-4-en-3-one] |
